Data reported in US20250213588A1, “STERILIZATION METHOD OF PHARMACEUTICAL PREPARATION AND PACKAGING” (SANTEN PHARMACEUTICAL CO., LTD., priority 2022, published 2025).
“Also recorded” adds a separate entry of the source.

Assays:
Assay type in all cases: physicochemical
[1] = Photostability test (1): irradiation at specific wavelengths; conditions: Preparations 1 and 2; irradiated for 24 hours with multi-wavelength irradiation spectrometer; HPLC (FIG. 2)
Description: The stability of the aqueous pharmaceutical composition comprising AFDX0250 or a salt thereof under light irradiation was studied.
Preparation 1 with the composition shown in the above Table 1 and Preparation 2 with the composition shown in Table 4 were prepared in usual manners. The prepared preparations were used as test preparations.
The prepared test preparations were irradiated at specific wavelengths using multi-wavelength irradiation spectrometer for 24 hours, and the amount of AFDX0250 in each test preparation at each irradiation wavelength after the irradiation was quantified by high performance liquid chromatography to calculate the residual ratio of AFDX0250 (%). The residual ratio of AFDX0250 (%) represents the ratio of AFDX0250 (%) after irradiation when the amount of AFDX0250 in the test formulation is 100%.

[2] = Stability evaluation test after sterilization treatment; conditions: for Hydrolysate (%): Example 6 test preparation; for Residual ratio (%): Example 6 test preparation (0.25 g AFDX0250 in 50 mL, citrate buffer, sodium chloride)
Description: An aqueous pharmaceutical composition comprising AFDX0250 or a salt thereof was sterilized to evaluate the stability of AFDX0250 in a preparation.
Sodium citrate hydrate (2.5 g) was dissolved in purified water and the solution was adjusted exactly to 100 mL to prepare 2.5% sodium citrate hydrate solution. Citric acid hydrate (0.2 g) was dissolved in purified water and the solution was adjusted exactly to 100 mL to prepare 0.2% citric acid hydrate solution. Sodium chloride (5 g) was dissolved in purified water and the solution was adjusted exactly to 50 mL to prepare 10% sodium chloride solution. 0.25 g of AFDX0250 was weighed, the weighed AFDX0250 was mixed with 10 mL each of 2.5% sodium citrate hydrate solution, 0.2% citric acid hydrate solution and 10% sodium chloride solution, and then the solution was adjusted exactly to 50 mL with purified water to prepare a test preparation.
The prepared test preparation was subjected to gamma radiation sterilization, sterilization by filtration using a filter or autoclaved (AC) sterilization to prepare a sterile formulation. The amount of AFDX0250 after each sterilization treatment was quantified by high performance liquid chromatography to calculate the residual ratio of AFDX0250 (%). The residual ratio of AFDX0250 (%) represents the ratio of AFDX0250 (%) after sterilization treatment when the amount of AFDX0250 in the test preparation is 100%. In addition, the amount of AFDX0250-derived hydrolysate (5,11-dihydro-6H-pyrido[2,3-b][1,4]benzodiazepin-6-one) in each test preparation excluding the test preparation subjected to gamma radiation sterilization was quantified by high performance liquid chromatography.

[3] = Absorption wavelength measurement test (UV-visible spectrophotometer); conditions: 0.0025% AFDX0250 solution in acetonitrile
Description: The absorption wavelength of AFDX0250 was measured.
AFDX0250 (10 mg) was dissolved in acetonitrile, and the solution was adjusted exactly to 100 mL to prepare 0.01% AFDX0250 solution. The solution was diluted 4-fold to prepare 0.0025% AFDX0250 solution. The prepared 0.0025% AFDX0250 solution was used as a test preparation.
The absorption spectrum of the prepared test preparation was measured using ultraviolet visible spectrophotometer.

[4] = after AC (autoclaved) sterilization
[5] = after sterilization by filtration using a filter

Hydrolysate (%) [2, 4]: 0.37% | Residual ratio (%) [2, 4]: 93.8% | Residual ratio (%) ([2]; after gamma radiation sterilization): 55.7% | Hydrolysate (%) [2, 5]: 0.06% | Residual ratio (%) [2, 5]: 100.3%
Structure (SMILES): CCN(CC)C[C@H]1CCCCN1CC(=O)N1c2ccccc2C(=O)Nc2cccnc21 [AFDX0250, (R)-11-[2-[2-[(diethylamino)methyl]-1-piperidinyl]acetyl]-5,11-dihydro-6H-pyrido[2,3-b][1,4]benzodiazepin-6-one]
degradation of AFDX0250 under irradiation at specific wavelengths [1]: degraded at a wavelength of from 216 to 310 nm and 372 nm; also recorded: particularly degraded at a wavelength of 370 nm | absorption spectrum of AFDX0250 [3]: no absorption of AFDX0250 was observed at the longer wavelengths than about 330 nm
